The subject of assay [1] is Actinobacillus actinomycetemcomitans. The assay can be described thus: Bactericidal activity of hybrid adsorbed HAP beads, fluorescent probes (membrane damage). The settings on record: hybrid adsorbed HAP surface, as a function of time. Format: cell-based. Here is the method:
(§1) The fungicidal and bactericidal activity of the hybrid adsorbed HAP beads was determined using fluorescent probes. The increase in fluorescence as a function of microbial membrane damage was monitored. […] Candida albicans and Actinobacillus actinomycetemcomitans were used as the fungal and bacterial organisms, respectively.

Assay [2] relates to Candida albicans. The assay can be described thus: Fungicidal activity of hybrid adsorbed HAP beads, fluorescent probes (membrane damage). Format: cell-based. Conditions: hybrid adsorbed HAP surface, as a function of time. As for the experimental part: as §1
Assay [3] in a line: Peptide adsorption to hydroxyapatite (HAP) beads. The settings on record: for K × 10^−5 (affinity coefficient) / N × 10^6 (adsorption parameter): adsorption to HAP, C/Q = 1/KN + C/N. The class given is binding. An excerpt: The extent to which the hybrid molecule gets adsorbed was examined using hydroxyapatite (HAP) beads as described previously (Raj, et al., supra, 1992).
The conditions of assay [4]: literature (Raj, et al., 1992); cited from earlier work.

Data on four compounds can be found in patent US20040136926A1, “Intra-oral drug delivery system” (priority 2002, published 2004).

Where a SMILES comes first, the peptide text is derived from it. Bridges are numbered along the chain shown (N, C = ends). Roman numbers before positions name the chains, in order. Where no end group is shown, it is not given here. [ ]: non-standard residue; d: D form. pS = N[C@@H](COP(=O)(O)O)C(=O)O

On to `CC[C@H](C)[C@@H]1NC(=O)[C@H](CCCNC(=N)N)NC(=O)[C@@H](NC(=O)[C@H](CC(C)C)NC(=O)[C@@H](N)CCCNC(=N)N)CSSC[C@@H](C(=O)N[C@@H](CCCNC(=N)N)C(=O)OC[C@H](NC(=O)[C@H](CC(=O)O)NC(=O)[C@H](CC(=O)O)NC(=O)[C@H](CC(=O)O)NC(=O)[C@H](CCC(=O)O)NC(=O)[C@@H](N)CCC(=O)O)C(=O)O)NC(=O)[C@H](C(C)C)NC(=O)[C@H](CCCNC(=N)N)NC(=O)[C@H]([C@@H](C)CC)NC(=O)[C@H](C(C)C)NC(=O)[C@H](C(C)C)NC1=O` [Hybrid] (I: H-RLCRIVVIRVCR / II: H-EEDDDS-OH; disulfide I:3-I:11; ester I:C-II:6; N-terminus assumed), for which, in assay [1], the “Microbial membrane damage (increase in fluorescence) vs control HAP” value was “significantly caused microbial membrane damage”. The “Microbial membrane damage (increase in fluorescence) vs control HAP” value in assay [2] is listed as “significantly caused microbial membrane damage”. Also, in assay [3], the “K × 10^−5 (affinity coefficient)” value is listed as 10.8 ± 1.8 liter mol^−1 and the “N × 10^6 (adsorption parameter)” value worked out at 1.6 ± 0.2 mol m^−2. In addition, the “Affinity for HAP (in words)” value in assay [3] (hydroxyapatite beads) was “quite comparable to salivary statherin”.
Take “D-D-D-E-E-K-F-L-R-R-I-G-R-F-G (DDDEEKFLRRIGRFG) [SNA15, Analog of SN15]”: the “Affinity for HAP compared with whole statherin” value in assay [4] is on record as “higher affinity for HAP than the whole molecule”.
Regarding “D-Sp-Sp-E-E-K-F-L-R-R-I-G-R-F-G (D[pS][pS]EEKFLRRIGRFG; UniProt P02808 20-34, looked up, fragment) [SN15, Amino-terminal 15-residue fragment of statherin]”, in assay [4], the “Affinity for HAP compared with whole statherin” value is “higher affinity for HAP than the whole molecule”.
Turning to “D-Sp-Sp-EEKFLRRIGRFGYGYGPYQPVPEQPLYPQPYQPQYQQYTF (D[pS][pS]EEKFLRRIGRFGYGYGPYQPVPEQPLYPQPYQPQYQQYTF; UniProt P02808 20-62, looked up) [Statherin, Salivary phosphorylated polypeptide, reference compound]”, in assay [3], the “K × 10^−5 (affinity coefficient)” value is on record as 11.1 ± 2.0 liter mol^−1 and the “N × 10^6 (adsorption parameter)” value was determined as 0.9 ± 0.05 mol m^−2.
